Experimental data reported in PubChem BioAssay AID1259407 (Chemical Carcinogenesis Research Information System (CCRIS), 2018).
Calls of active or inactive are those of the source. No rule for the calls is given here.

Tested on: CCRIS mutagenicity, Ames/micronucleus/aberration tests
Test: CCRIS mutagenicity studies
[1] = Test System: AMES SALMONELLA TYPHIMURIUM, Strain/Indicator: TA98, Metabolic Activation: NONE, Method: PREINCUBATION
[2] = Test System: AMES SALMONELLA TYPHIMURIUM, Strain/Indicator: TA100, Metabolic Activation: NONE, Method: PREINCUBATION
[3] = Test System: AMES SALMONELLA TYPHIMURIUM, Strain/Indicator: TA98, Metabolic Activation: NONE, Method: STANDARD PLATE
[4] = Test System: AMES SALMONELLA TYPHIMURIUM, Strain/Indicator: TA98, Metabolic Activation: RAT, LIVER, S-9, AROCLOR 1254, Method: STANDARD PLATE
[5] = Test System: AMES SALMONELLA TYPHIMURIUM, Strain/Indicator: TA100, Metabolic Activation: NONE, Method: STANDARD PLATE
[6] = Test System: AMES SALMONELLA TYPHIMURIUM, Strain/Indicator: TA100, Metabolic Activation: RAT, LIVER, S-9, AROCLOR 1254, Method: STANDARD PLATE
[7] = Test System: AMES SALMONELLA TYPHIMURIUM, Strain/Indicator: TA1537, Metabolic Activation: RAT, LIVER, S-9, AROCLOR 1254, Method: STANDARD PLATE

CCOC(=O)c1cc(Cc2ccc(N)c(C(=O)OCC)c2)ccc1N
mutagenic call [1]: inactive; negative
mutagenic call (Test System: AMES SALMONELLA TYPHIMURIUM, Strain/Indicator: TA98, Metabolic Activation: RAT, LIVER, S-9, PCB, Method: PREINCUBATION): inactive; negative
mutagenic call [2]: inactive; negative

CC[C@H](C)[C@H]1O[C@]2(C=C[C@@H]1C)C[C@@H]1C[C@@H](C/C=C(\C)[C@@H](O[C@H]3C[C@H](OC)[C@@H](O[C@H]4C[C@H](OC)[C@@H](NC)[C@H](C)O4)[C@H](C)O3)[C@@H](C)/C=C/C=C3\CO[C@@H]4[C@H](O)C(C)=C[C@@H](C(=O)O1)[C@]34O)O2
mutagenic call (End Point: Ames Salmonella typhimurium, Test System: TA97a, Metabolic Activation: None): inactive; negative
mutagenic call (End Point: Ames Salmonella typhimurium, Test System: TA97a, Metabolic Activation: S-9): inactive; negative
mutagenic call (End Point: Ames Salmonella typhimurium, Test System: TA98, Metabolic Activation: None): inactive; negative
mutagenic call (End Point: Ames Salmonella typhimurium, Test System: TA98, Metabolic Activation: S-9): inactive; negative
mutagenic call (End Point: Ames Salmonella typhimurium, Test System: TA100, Metabolic Activation: None): inactive; negative
mutagenic call (End Point: Ames Salmonella typhimurium, Test System: TA100, Metabolic Activation: S-9): inactive; negative
mutagenic call (End Point: Ames Salmonella typhimurium, Test System: TA1535, Metabolic Activation: None): inactive; negative
mutagenic call (End Point: Ames Salmonella typhimurium, Test System: TA1535, Metabolic Activation: S-9): inactive; negative
mutagenic call (End Point: E. coli, Test System: WP2, Metabolic Activation: None): inactive; negative
mutagenic call (End Point: E. coli, Test System: WP2, Metabolic Activation: S-9): inactive; negative
mutagenic call (End Point: E. coli, Test System: WP2uvrA pKM101, Metabolic Activation: None): inactive; negative
mutagenic call (End Point: E. coli, Test System: WP2uvrA pKM101, Metabolic Activation: S-9): inactive; negative
mutagenic call (End Point: E. coli, Test System: WP2uvrA, Metabolic Activation: None): inactive; negative
mutagenic call (End Point: E. coli, Test System: WP2uvrA, Metabolic Activation: S-9): inactive; negative
mutagenic call (End Point: Gene mutation, Test System: Chinese hamster V79 lung fibroblasts, Metabolic Activation: None): inactive; negative
mutagenic call (End Point: Gene mutation, Test System: Chinese hamster V79 lung fibroblasts, Metabolic Activation: S-9): inactive; negative
mutagenic call (End Point: In vitro chromosomal aberrations, Test System: Chinese hamster ovary (CHO-WBL) cells, Metabolic Activation: None): inactive; negative
mutagenic call (End Point: In vitro chromosomal aberrations, Test System: Chinese hamster ovary (CHO-WBL) cells, Metabolic Activation: S-9): inactive; negative
mutagenic call (End Point: In vivo chromosomal aberrations, Test System: Bone marrow cells, Species: Mouse, Route: Oral): inactive; negative

C=CC[Si](C)(C)C
mutagenic call (Test System: AMES SALMONELLA TYPHIMURIUM, Strain/Indicator: TA98, Metabolic Activation: HAMSTER, LIVER, S-9, AROCLOR 1254 (10%), Method: PREINCUBATION): inactive; negative
mutagenic call [1]: inactive; negative
mutagenic call (Test System: AMES SALMONELLA TYPHIMURIUM, Strain/Indicator: TA98, Metabolic Activation: RAT, LIVER, S-9, AROCLOR 1254 (10%), Method: PREINCUBATION): inactive; negative
mutagenic call (Test System: AMES SALMONELLA TYPHIMURIUM, Strain/Indicator: TA100, Metabolic Activation: HAMSTER, LIVER, S-9, AROCLOR 1254 (10%), Method: PREINCUBATION): inactive; negative
mutagenic call [2]: inactive; negative
mutagenic call (Test System: AMES SALMONELLA TYPHIMURIUM, Strain/Indicator: TA100, Metabolic Activation: RAT, LIVER, S-9, AROCLOR 1254 (10%), Method: PREINCUBATION): inactive; negative
mutagenic call (Test System: AMES SALMONELLA TYPHIMURIUM, Strain/Indicator: TA1535, Metabolic Activation: HAMSTER, LIVER, S-9, AROCLOR 1254 (10%), Method: PREINCUBATION): inactive; negative
mutagenic call (Test System: AMES SALMONELLA TYPHIMURIUM, Strain/Indicator: TA1535, Metabolic Activation: NONE, Method: PREINCUBATION): inactive; negative
mutagenic call (Test System: AMES SALMONELLA TYPHIMURIUM, Strain/Indicator: TA1535, Metabolic Activation: RAT, LIVER, S-9, AROCLOR 1254 (10%), Method: PREINCUBATION): inactive; negative
mutagenic call (Test System: AMES SALMONELLA TYPHIMURIUM, Strain/Indicator: TA1537, Metabolic Activation: HAMSTER, LIVER, S-9, AROCLOR 1254 (10%), Method: PREINCUBATION): inactive; negative
mutagenic call (Test System: AMES SALMONELLA TYPHIMURIUM, Strain/Indicator: TA1537, Metabolic Activation: NONE, Method: PREINCUBATION): inactive; negative
mutagenic call (Test System: AMES SALMONELLA TYPHIMURIUM, Strain/Indicator: TA1537, Metabolic Activation: RAT, LIVER, S-9, AROCLOR 1254 (10%), Method: PREINCUBATION): inactive; negative
mutagenic call (Test System: AMES SALMONELLA TYPHIMURIUM, Strain/Indicator: TA1538, Metabolic Activation: HAMSTER, LIVER, S-9, AROCLOR 1254 (10%), Method: PREINCUBATION): inactive; negative
mutagenic call (Test System: AMES SALMONELLA TYPHIMURIUM, Strain/Indicator: TA1538, Metabolic Activation: NONE, Method: PREINCUBATION): inactive; negative
mutagenic call (Test System: AMES SALMONELLA TYPHIMURIUM, Strain/Indicator: TA1538, Metabolic Activation: RAT, LIVER, S-9, AROCLOR 1254 (10%), Method: PREINCUBATION): inactive; negative
mutagenic call (Test System: MOUSE LYMPHOMA, Strain/Indicator: L5178Y (TK+/TK-), Metabolic Activation: NONE, Method: SUSPENSION/PLATE): inactive; negative. reevaluation of results: negative
mutagenic call (Test System: MOUSE LYMPHOMA, Strain/Indicator: L5178Y (TK+/TK-), Metabolic Activation: RAT, LIVER, S-9, AROCLOR 1254, Method: SUSPENSION/PLATE): inactive; negative. reevaluation of results: negative

CN1CCC(=C2c3ccccc3C=Cc3ccccc32)CC1
mutagenic call [3]: inactive; negative
mutagenic call [4]: inactive; negative
mutagenic call [5]: inactive; negative
mutagenic call [6]: inactive; negative
mutagenic call (Test System: AMES SALMONELLA TYPHIMURIUM, Strain/Indicator: TA1535, Metabolic Activation: NONE, Method: STANDARD PLATE): inactive; negative
mutagenic call (Test System: AMES SALMONELLA TYPHIMURIUM, Strain/Indicator: TA1535, Metabolic Activation: RAT, LIVER, S-9, AROCLOR 1254, Method: STANDARD PLATE): inactive; negative
mutagenic call (Test System: AMES SALMONELLA TYPHIMURIUM, Strain/Indicator: TA1537, Metabolic Activation: NONE, Method: STANDARD PLATE): inactive; negative
mutagenic call [7]: inactive; negative
mutagenic call (Test System: AMES SALMONELLA TYPHIMURIUM, Strain/Indicator: TA1538, Metabolic Activation: NONE, Method: STANDARD PLATE): inactive; negative
mutagenic call (Test System: AMES SALMONELLA TYPHIMURIUM, Strain/Indicator: TA1538, Metabolic Activation: RAT, LIVER, S-9, AROCLOR 1254, Method: STANDARD PLATE): inactive; negative

CCCCNC(=O)C=Cc1ccc([N+](=O)[O-])o1
mutagenic call [1]: active; positive

c1ccc2c(c1)ccc1ccc3c(c12)CCC3
mutagenic call [6]: active; positive

CN(C)c1ccc2cc3ccc(N(C)C)cc3nc2c1
mutagenic call [4]: active; positive
mutagenic call [6]: active; positive
mutagenic call [7]: active; positive
mutagenic call (Test System: CHINESE HAMSTER OVARY, Strain/Indicator: CHO-K1-BH4 (HGPRT)/6-THIOGUANINE, Metabolic Activation: S-9, Method: SUSPENSION/PLATE): active; positive
mutagenic call (Test System: E. COLI, Strain/Indicator: WP2, Metabolic Activation: NONE, Method: PREINCUBATION): inactive; negative
mutagenic call (Test System: MOUSE LYMPHOMA, Strain/Indicator: L5178Y (TK+/TK-), Metabolic Activation: S-9, Method: SUSPENSION/PLATE): active; positive

c1ccc2c(c1)CC[C@@H]1CCC[C@@H]3O[C@]213
mutagenic call [3]: inactive; negative
mutagenic call [5]: inactive; negative
